Test results taken from paper PMC11592675, “Förster Resonance Energy Transfer Measurements in Living Bacteria for Interaction Studies of BamA with BamD and Inhibitor Identification” (Cells, 2024).
“And” between values parts separate entries of the source, which are not always exact repeats. Equal entries are not always repeated. “Also recorded” adds a separate entry of the source.

Tests used:
[1] = test system: interaction between BamA and BamD (BamA-mNeonGreen and BamD-mScarlet-I); experiment: FRET-based BamA–BamD interaction assay in living E. coli cells (flow cytometry), peptide treatment; type: cell-based; conditions: for Ka^app. of the BamA–BamD interaction after peptide treatment: cells incubated 3 h in water, z and Fmax kept constant, n = 5 biological replicates, untreated control in the RFIRLN experiment Ka^app. = 3.08 × 10^−4; for inhibition of the interaction between BamA and BamD (in words): living bacterial cells, 500 µM and 2.5 mM peptide, 3 h in water
Method: (§1) At the start of each experiment, E. coli BL21 cells were transformed with the corresponding plasmids, spread onto lysogeny broth-miller (LB)-agar plates with 50 µg/mL kanamycin (≥750 I.U./mg) or carbenicillin (purity: ≥88%) and grown over night. It turned out to be crucial to use freshly transformed cells for each experiment. Keeping the cells on agar plates for more than two days or cryoconservation of the cells led to an increase in the variability of the determined parameters Ka^app., z and Fmax. The following day, after transformation of the cells, 1 mL of LB medium with 50 µg/mL of the corresponding antibiotic in a 48-well plate was inoculated with a single colony and cultivated overnight (16 h) at 37 °C and 200 rpm. For protein production, M9 mineral medium was used, in which glucose was substituted by 1% (m/m) glycerol (purity: ≥99%) as the carbon source. A quantity of 200 µL of M9 medium in a 96-well plate was inoculated with 2 µL of the overnight culture and cultivated at 28 °C and 200 rpm for 6 h. Then, gene expression was induced with 1 mM L-rhamnose (purity: ≥98%), and afterwards an additional 2 h of cultivation with 0.2% (m/V) arabinose (purity: ≥99%). Cells that carried a plasmid that only contained one promotor were only treated with the corresponding inductor. Following induction of gene expression, cells were cultivated for an additional 16 h at 28 °C and 200 rpm. Cells were subsequently washed with PBS three times and then directly analyzed by flow cytometry.
(§2) A FACS Aria III flow cytometer (BD Bioscience, Franklin Lages, NJ, USA) with a 70 microns nozzle was used to analyze all cells. A three-channel method was used to measure the donor channel (mNeonGreeen), the acceptor channel (mScarlet-I) and the FRET channel. To measure the mNeonGreen fluorescence, an excitation wavelength of 488 nm and emission wavelength filters of 530/30 nm (band-pass) and 502 nm (long-pass) were used. mScarlet-I fluorescence was excited at 561 nm and measured with emission wavelength filters of 610/20 nm (band-pass) and 600 nm (long-pass). The FRET channel was measured with an excitation wavelength of 488 nm and emission filters of 610/20 nm (band-pass) and 600 nm (long-pass). A maximum of 10,000 cells per second were analyzed. FACSDiva™ Software (BD Bioscience, Franklin Lages, NJ, USA, version 8.0) was used for gating data analysis. For cells only expressing one fluorophore, 50,000 cells per sample were analyzed. […] A total of 50,000 cells inside the Q2 gate were analyzed. Examples are shown in Supplementary Figure S2. Cells at the edge of the plot were excluded during calculation of DFRET values and relative donor/acceptor concentrations.
(§3) Data points of all cells inside the analysis gate (Q2), as described in 2.4, were exported as FCS files using FACSDiva™ Software (BD Bioscience, Franklin Lages, NJ, USA, version 8.0). A custom Python program employing the FlowKit was subsequently used to convert the FCS formatted data into tab-delimited txt format.
Calculation of the DFRET and calculation of the relative concentration of the acceptor and donor from the flow cytometric data were performed as described by Hochreiter et al.. Cells with an RFU ≥ 250,000 were excluded from further analysis. Fitting of a binding model based on the law of mass actions to the data was also performed as described by Hochreiter et al.. The binding model used here (Equation (1)) fits the affinity (Ka^app), the stoichiometry (z) and the maximum FRET (Fmax) of a complex. To do so, the relative donor and acceptor concentration, as well as the DFRET, of a large number of cells with different expression levels has to be known. All other equations used for the calculations are described in Supplementary Text S1 for clarity. The FRET-efficiency of the donor- acceptor tandem, needed for the calculations, was determined by spectral unmixing according to Alexeeva et al. to be 0.43 [42]. […]

[2] = test system: bacterial growth; experiment: inhibition of bacterial growth by the peptides; type: cell-based, E. coli; conditions: up to a concentration of 2.5 mM
[3] = test system: Pseudomonas aeruginosa; conditions: cited from earlier work
Description: Mori et al. identified a peptide sequence (FIRL) that was highly conserved across BamD homologues in a wide variety of gram-negative bacteria. […] When the peptide was identified by Mori et al., no crystal structure of the BAM complex was available. When we located the amino acids of the FIRL peptide in the crystal structure of BamD, it turned out that only two of the four amino acids, R97 and L98, appeared to interact with BamA at site 2 (Figure 3c). The sidec ... || The interaction between BamA and BamD is essential for the correct function of the BAM complex. BamE has been reported to stabilize the interaction between BamA and BamD [29]. In this work, BamE was not overexpressed alongside the fluorophore-labeled BamA and BamD fusion proteins. It is therefore unclear to what extent chromosomal-encoded BamE stabilized the complex between fluorophore-labelled BamA and BamD. It is also possible that the interaction measured between BamA and BamD was not affected by BamE at all, due to the low amount of BamE present in comparison to the plas ...

[4] = test system: outer membrane; conditions: cited from earlier work
Description: Resistance against known antibiotics is progressively spreading. Therefore, new antibacterial entities are urgently needed. […] The β-barrel assembly ... || The interaction between BamA and BamD is essential for the correct function of the BAM complex. BamE has been reported to stabilize the interaction between BamA and BamD [29]. In this work, BamE was not overexpressed alongside the fluorophore-labeled BamA and BamD fusion proteins. It is therefore unclear to what extent chromosomal-encoded BamE stabilized the complex between fluorophore-labelled BamA and BamD. It is also possible that the interaction measured between BamA and BamD was not affected by BamE at all, due to the low amount of BamE present in comparison to the plas ...

[5] = test system: gram-negative bacteria; conditions: in vitro; cited from earlier work
Description: (§4) Resistance against known antibiotics is progressively spreading. Therefore, new antibacterial entities are urgently needed. […] The β-barrel assembly ...

[6] = test system: interaction between BamA and BamD; conditions: yeast two hybrid high throughput screening; cited from earlier work
Description: as §4

[7] = test system: BamA; conditions: cited from earlier work
Description: Resistance against known antibiotics is progressively spreading. Therefore, new antibacterial entities are urgently needed. According to the WHO, new antibiotics against gram-negative bacteria are in particular need. Common mechanisms of antibiotic resistance in gram-negative bacteria include changes in membrane and cell-wall permeability, biofilm formation, the production of efflux pumps and beta-lactamases, as well as mutation of typical targets. […] The β-barrel assembly ...

[8] = test system: BamA–BamD interaction; experiment: FRET-based determination of apparent affinity of BamA, BamD and their variants / FRET pairs in living E. coli cells; type: cell-based; conditions: BamA-mNeonGreen–BamD-mScarlet-I, n = 5 biological replicates (Figure 3c)
Description: E. coli Stellar (F−, endA1, supE44, thi-1, recA1, relA1, gyrA96, phoA, Φ80d lacZΔ M15, Δ(lacZYA-argF) U169, Δ(mrr-hsdRMS-mcrBC), ΔmcrA, λ−) was used for plasmid construction. E. coli BL21 (B, F^−, gal, dcm, Ion, hsdSB(rB^− mB^−), [malB^+]K-12(λ^S)) was used for expression of all fusion proteins and subsequent flow cytometric analysis. Plasmids were constructed by ligation free cloning using the InFusion™ cloning kit (Clonetech, San Jose, CA, USA) according to the manufacturer’s instructions, based on plasmid backbones described earlier. Details on the determinants and the construction of each of the used plasmids is given in the Supplementary Information (Supplementary Table S1 and Supplementary Text S1). Oligonucleotides used in their constructions are listed in Supplementary Table S2. Single-point mutations were introduced with the InFusion™ cloning kit. Oligonucleotides used are listed in Supplementary Table S2.
as §1, §2
as §3, with “format. […]” for “format.”

[9] = target: BamA-mNeonGreen (C-terminal fusion of mNeonGreen to BamA) (E. coli) (UniProt P0A940); experiment: FRET or BRET; flow cytometry (three channels) of living E. coli BL21 co-expressing the mNeonGreen (donor) and mScarlet-I (acceptor) fusions from one plasmid; cells washed with PBS; binding model (law of mass action) fitted to DFRET and relative concentrations with Ka app, z and Fmax all as free parameters; apparent; five replicates on each of three days
[10] = target: mNeonGreen-BamA (N-terminal fusion of mNeonGreen to BamA) (E. coli) (UniProt P0A940); experiment: as above
[11] = M9 medium or PBS; not soluble at concentrations above 1 mM
Method: Peptides (RFIRLN and […]) were synthesized by Genicbio with a purity of >95%. For treatment with the peptides, cells were grown as described above. […] Cells not treated with the peptide were also incubated in water for 3 h and used as a control for all experiments involving the peptides.

[12] = test system: clinical isolates; conditions: several clinical isolates; cited from earlier work
Description: as §4

[13] = interaction site 1 variants, z and Fmax constant
[14] = interaction site 2 variants, z = 1, Fmax = 0.36 constant

VAEYYTER
Ka^app. of the BamA–BamD interaction after peptide treatment ([1]; 500 µM peptide): 1.75 × 10^−4 | Ka^app. of the BamA–BamD interaction after peptide treatment ([1]; 2.5 mM peptide): 1.03 × 10^−4 | inhibition of the interaction between BamA and BamD (in words) [1]: inhibit the interaction between BamA and BamD in a dose-dependent manner in the upper micromolar range; also recorded: a clear dose-dependent effect was observed; also recorded: able to disrupt the binding of BamD to BamA in living cells in high micromolar concentrations | inhibition of bacterial growth [2]: no inhibition of bacterial growth was detected up to a concentration of 2.5 mM

FIRL [peptide derived from BamD, Mori et al]
bacteriostatic or bactericidal effects [3]: did not show any bacteriostatic or bactericidal effects | potentiation of antibiotics [3]: potentiated the effect of antibiotics; also recorded: potentiate the activity of antibiotics | effect on outer membrane integrity / membrane permeability [4]: cause membrane permeability in treated cells; also recorded: shown to interfere with outer membrane integrity

COC(=O)c1c(NC(=O)c2ccc([N+](=O)[O-])o2)sc2c1CCN(C(C)C)C2 [IMB-H4]
permeabilization of the OM [4]: shown to permeabilize the OM | antibacterial activity [5]: showed antibacterial activity in vitro | inhibition of the interaction between BamA and BamD [6]: shown to inhibit the interaction between BamA and BamD | binding to BamA ([7]; no specific interaction site known): binds to BamA

BamD^Y184F: BamD variant
Ka^app. [8, 13]: 6.22 × 10^−5

E183A: BamD variant
Ka^app. [8, 13]: 7.2 × 10^−5

BamD-mScarlet-I (C-terminal fusion of mScarlet-I to BamD) (from UniProt P0AC02 20-245) (natural protein)
stoichiometry N [9]: 1.3 and 1.6 and 1.2 | stoichiometry N [10]: 0.7 and 1.1

BamD^E187A: BamD variant
Ka^app. [8, 13]: 7.82 × 10^−5

BamD^R97A: BamD variant
Ka^app. [8, 14]: 6.23 × 10^−5

BamD^R94A: BamD variant
Ka^app. [8, 14]: 5.47 × 10^−5

RFIRLN
Ka^app. of the BamA–BamD interaction after peptide treatment ([1]; 500 µM peptide): 1.95 × 10^−4 | Ka^app. of the BamA–BamD interaction after peptide treatment ([1]; 2.5 mM peptide): 7.48 × 10^−5 | inhibition of the interaction between BamA and BamD (in words) [1]: inhibit the interaction between BamA and BamD in a dose-dependent manner in the upper micromolar range; also recorded: a clear dose-dependent effect was observed; also recorded: shown to inhibit binding of BamA to BamD in living cells | inhibition of bacterial growth [2]: no inhibition of bacterial growth was detected up to a concentration of 2.5 mM | solubility [11]: ≤ 1000 µM

V181A: BamD variant
Ka^app. [8, 13]: 6.66 × 10^−5

BamD^N99A: BamD variant
Ka^app. [8, 14]: 6.57 × 10^−5

darobactin
antimicrobial activity [12]: antimicrobial activity against several clinical isolates | effect on insertion of BamA client proteins into the outer membrane [7]: prevents the insertion of BamA client proteins into the outer membrane

BamD^L98A: BamD variant
Ka^app. [8, 14]: 6.58 × 10^−5

BamD^Y184A: BamD variant
Ka^app. [8, 13]: 5.27 × 10^−5

BamD^Y185A: BamD variant, Y185 mutated to alanine
Ka^app. [8, 13]: 6.22 × 10^−5
